According to BindingDB's records for doi:10.7270/Q2251GJ9 (The Scripps Research Institute Molecular Screening Center, 2007):
Counter-ions that a name gives are not always drawn.

Target: Sphingosine 1-phosphate receptor 1 (Homo sapiens, UniProt P21453)
Assay: direct activation of human S1P1 – cell-based, agonist mode, 60K MLSMR set, dose response (AID 468)
[1] = inactive by the depositor's call

Chain of Sphingosine 1-phosphate receptor 1 (P21453 whole entry): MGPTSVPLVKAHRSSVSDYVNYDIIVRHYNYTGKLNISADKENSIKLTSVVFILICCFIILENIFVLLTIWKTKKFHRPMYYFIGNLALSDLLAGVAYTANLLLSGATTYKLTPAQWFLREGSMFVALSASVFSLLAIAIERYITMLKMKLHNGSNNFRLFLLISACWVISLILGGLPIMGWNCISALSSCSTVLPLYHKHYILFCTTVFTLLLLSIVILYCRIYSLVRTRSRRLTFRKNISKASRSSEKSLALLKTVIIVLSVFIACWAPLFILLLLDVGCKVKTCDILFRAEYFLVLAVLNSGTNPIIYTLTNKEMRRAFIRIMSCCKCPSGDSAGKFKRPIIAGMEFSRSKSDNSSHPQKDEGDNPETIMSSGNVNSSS

Structure (SMILES): COc1ccc(N2CCn3c2nc2c3c(=O)n(CCCc3ccccc3)c(=O)n2C)c(OC)c1 [6-(2,4-dimethoxyphenyl)-4-methyl-2-(3-phenylpropyl)-7,8-dihydropurin[7,8-a]imidazole-1,3-quinone]
- EC50: 5.83 µM

Structure (SMILES): Fc1ccc2[nH]c3c(N4CCN(Cc5ccc6c(c5)OCO6)CC4)ncnc3c2c1 [4-[4-(1,3-benzodioxol-5-ylmethyl)-1-piperazinyl]-8-fluoro-5H-pyrimido[5,4-b]indole]
- EC50: 1.96 µM

Structure (SMILES): O=C(Cc1c[nH]c2ccccc12)N1CCc2ccccc21
- EC50: 9.43 µM

Structure (SMILES): CCCc1cc(C(=O)Nc2sc(C)c(CC)c2C#N)no1 [MLS000116385]
- EC50: 3.73 µM

Structure (SMILES): Cc1noc(/C=C/N(C)C)c1S(=O)(=O)N1CCN(c2ccccc2)CC1 [(E)-N,N-dimethyl-2-[3-methyl-4-(4-phenylpiperazin-1-yl)sulfonyl-1,2-oxazol-5-yl]ethenamine]
- EC50: > 95 µM

Structure (SMILES): COc1cc(C#CC#CCN2CCCCC2)ccc1O [2-methoxy-4-(5-piperidin-1-ylpenta-1,3-diynyl)phenol;hydrochloride]
- EC50: 8.34 µM

Structure (SMILES): Clc1ccc(OCCN2CCN(c3ncnc4sccc34)CC2)cc1 [4-[4-[2-(4-chloranylphenoxy)ethyl]piperazin-1-yl]thieno[2,3-d]pyrimidine]
- EC50: 0.106 µM

Structure (SMILES): Cc1cccc(-c2nc(CSCC(=O)N3CCN(c4ccccn4)CC3)c(C)o2)c1 [1-[({[5-methyl-2-(3-methylphenyl)-1,3-oxazol-4-yl]methyl}thio)acetyl]-4-pyridin-2-ylpiperazine]
- EC50 [1]: 13.6 µM

Structure (SMILES): COc1ccc(C(=O)C(CN2CCOCC2)c2ccccc2)cc1F (centres undefined) [1-(3-Fluoro-4-methoxy-phenyl)-3-morpholin-4-yl-2-phenyl-propan-1-one]
- EC50: 22.5 µM

Structure (SMILES): Cc1cc(C)n(-c2nc3ccccc3c(=O)n2OCCOc2ccccc2)n1 [2-(3,5-dimethyl-1-pyrazolyl)-3-(2-phenoxyethoxy)-4-quinazolinone]
- EC50 [1]: 20 µM

Structure (SMILES): COc1ccc(NC(=O)c2cnn3c(C(F)(F)F)cc(-c4ccco4)nc23)cc1OC [MLS000109325]
- EC50: > 95 µM

Structure (SMILES): COc1ccc(-c2nc(-c3ccncc3)no2)cc1OC [5-(3,4-dimethoxyphenyl)-3-(4-pyridyl)-1,2,4-oxadiazole]
- EC50: 1.85 µM

Structure (SMILES): Cn1c(C(=O)N2CCc3ccccc3C2)cc2oc3ccccc3c21 [2-(3,4-dihydroisoquinolin-2(1H)-ylcarbonyl)-1-methyl-1H-[1]benzofuro[3,2-b]pyrrole]
- EC50: > 30 µM

Structure (SMILES): COc1ccccc1-n1nnnc1S(=O)(=O)Cc1ccc(Cl)cc1 [5-(4-chlorobenzyl)sulfonyl-1-(2-methoxyphenyl)tetrazole]
- EC50: 3.61 µM

Structure (SMILES): Nc1c(C(=O)NC2CCCC2)sc2nc(-c3cccs3)ccc12 [3-Amino-6-thiophen-2-yl-thieno[2,3-b]pyridine-2-carboxylic acid cyclopentylamide]
- EC50 [1]: 14.4 µM

Structure (SMILES): Cc1ccccc1CS(=O)(=O)c1nnc([C@H](CC(C)C)NC(=O)OC(C)(C)C)o1 [SMR000044673]
- EC50: 7.51 µM

Structure (SMILES): Cc1ccc2[nH]c3c(N4CCN(Cc5ccc6c(c5)OCO6)CC4)ncnc3c2c1
- EC50: > 30 µM

Structure (SMILES): c1ccc(C(Cc2nc(-c3cccnc3)no2)c2ccccc2)cc1 [5-(2,2-diphenylethyl)-3-(3-pyridinyl)-1,2,4-oxadiazole]
- EC50: 2.82 µM

Structure (SMILES): COc1ccc(-n2c(C)cc(C(=O)CSc3nnc(-c4cccs4)o3)c2C)cc1 [1-[1-(4-methoxyphenyl)-2,5-dimethyl-3-pyrrolyl]-2-[(5-thiophen-2-yl-1,3,4-oxadiazol-2-yl)thio]ethanone]
- EC50: 2.03 µM

Structure (SMILES): Cc1cc(C(=O)CSc2nnc(-c3ccco3)o2)c(C)n1-c1ccc2c(c1)OCCO2 [1-[1-(2,3-dihydro-1,4-benzodioxin-6-yl)-2,5-dimethyl-3-pyrrolyl]-2-[[5-(2-furanyl)-1,3,4-oxadiazol-2-yl]thio]ethanone]
- EC50: 7.58 µM

Structure (SMILES): CC(C)Cn1c(N)c(C(=O)CSc2ccc3c(c2)OCCO3)c(=O)n(C)c1=O [6-amino-5-[2-(2,3-dihydro-1,4-benzodioxin-6-ylsulfanyl)acetyl]-3-methyl-1-(2-methylpropyl)pyrimidine-2,4-dione]
- EC50 [1]: 24 µM

Structure (SMILES): Cc1ccnc(SCC(=O)Nc2sc3c(c2C#N)CCCC3)n1 [MLS000077260]
- EC50: 4.76 µM

Structure (SMILES): COc1ccc(-c2noc(-c3cc(C)cc(C)c3)n2)cc1OC [3-(3,4-dimethoxyphenyl)-5-(3,5-dimethylphenyl)-1,2,4-oxadiazole]
- EC50: 1.23 µM

Structure (SMILES): COCCn1c(C)cc(C(=O)CSc2nc3ccccc3o2)c1C [2-(1,3-benzoxazol-2-ylsulfanyl)-1-[1-(2-methoxyethyl)-2,5-dimethyl-pyrrol-3-yl]ethanone]
- EC50: > 95 µM

Structure (SMILES): COc1cc2c(cc1OC)C(C)N(C(=O)c1cc3ccccc3o1)CC2 (centres undefined) [1-benzofuran-2-yl-(6,7-dimethoxy-1-methyl-3,4-dihydro-1H-isoquinolin-2-yl)methanone]
- EC50: > 95 µM

Structure (SMILES): Cc1cccc(N2CCN(C(=O)CSCc3c(C)noc3C)CC2)c1C [2-[(3,5-dimethyl-1,2-oxazol-4-yl)methylsulfanyl]-1-[4-(2,3-dimethylphenyl)piperazin-1-yl]ethanone]
- EC50: 4.52 µM

Structure (SMILES): Cc1cc(N2CCN(C/C=C/c3ccccc3)CC2)n2ncnc2n1 [5-Methyl-7-[4-((E)-3-phenyl-allyl)-piperazin-1-yl]-[1,2,4]triazolo[1,5-a]pyrimidine]
- EC50: > 30 µM

Structure (SMILES): O=S(=O)(NCc1ccncc1)c1ccc(Br)s1 [5-bromanyl-N-(pyridin-4-ylmethyl)thiophene-2-sulfonamide]
- EC50: 2.63 µM

Structure (SMILES): Cc1ccc2[nH]c3c(N4CCCCCC4)ncnc3c2c1 [4-(azepan-1-yl)-8-methyl-5H-pyrimido[5,4-b]indole]
- EC50: 4.15 µM

Structure (SMILES): COc1ccc(CNc2cc(C)nc3ncnn23)c(OC)c1 [(2,4-Dimethoxy-benzyl)-(5-methyl-[1,2,4]triazolo[1,5-a]pyrimidin-7-yl)-amine]
- EC50 [1]: 16.3 µM

Structure (SMILES): Cc1cccc(OCCCCc2c(C)n[nH]c2C)c1C [SMR000103133]
- EC50: 4.96 µM

Structure (SMILES): CCCC(=O)c1ccc(N2CCN(C(=O)c3ccccc3Br)CC2)c(F)c1 [1-[4-[4-(2-bromobenzoyl)piperazin-1-yl]-3-fluorophenyl]butan-1-one]
- EC50 [1]: 11.9 µM

Structure (SMILES): CC1=NC(=O)NC(c2ccc(F)cc2)C1C(=O)OCc1ccc2c(c1)OCO2 (centres undefined) [1,3-benzodioxol-5-ylmethyl 4-(4-fluorophenyl)-6-methyl-2-oxidanylidene-3,4-dihydro-1H-pyrimidine-5-carboxylate]
- EC50: 0.437 µM

Structure (SMILES): Cc1ccc(-c2csc3ncnc(Sc4nnc(CN5CCCCCC5=O)o4)c23)cc1 [1-[[5-[5-(4-methylphenyl)thieno[2,3-d]pyrimidin-4-yl]sulfanyl-1,3,4-oxadiazol-2-yl]methyl]azepan-2-one]
- EC50: 2.35 µM

Structure (SMILES): Cc1noc(/C=C/N(C)C)c1S(=O)(=O)N1CCc2ccccc21 [(E)-2-[4-(2,3-dihydroindol-1-ylsulfonyl)-3-methyl-1,2-oxazol-5-yl]-N,N-dimethyl-ethenamine]
- EC50 [1]: 95 µM

Structure (SMILES): CC(C)OC(=O)CSc1nc(N)c(C#N)c(-c2cccs2)c1C#N [2-[(6-amino-3,5-dicyano-4-thiophen-2-yl-2-pyridinyl)thio]acetic acid propan-2-yl ester]
- EC50: > 10 µM

Structure (SMILES): O=C(c1cc(-c2ccco2)on1)N1CCN(C(c2ccccc2)c2ccccc2)CC1 [(4-benzhydrylpiperazin-1-yl)-[5-(furan-2-yl)-1,2-oxazol-3-yl]methanone]
- EC50: 6.75 µM

Structure (SMILES): Oc1c(C(c2ccco2)N2CCN(C(c3ccccc3)c3ccccc3)CC2)sc2ncnn12 (centres undefined) [5-[(4-benzhydrylpiperazin-1-yl)-(furan-2-yl)methyl]-[1,3]thiazolo[3,2-b][1,2,4]triazol-6-ol]
- EC50 [1]: 15.9 µM

Structure (SMILES): O=C(C1CCCN1S(=O)(=O)c1cccc2cccnc12)N1CCN(c2ccccc2)CC1 (centres undefined) [(4-phenyl-1-piperazinyl)-[1-(8-quinolinylsulfonyl)-2-pyrrolidinyl]methanone]
- EC50: > 95 µM

Structure (SMILES): COc1ccc(NC(=O)c2cc(-c3cccs3)on2)cc1OC [MLS000087261]
- EC50: 5.79 µM

Structure (SMILES): Clc1ccc(OCc2nnc(-c3ccccc3Br)o2)c(Cl)c1 [2-(2-bromophenyl)-5-[(2,4-dichlorophenoxy)methyl]-1,3,4-oxadiazole]
- EC50: > 95 µM

Structure (SMILES): CC1=NC(=O)NC(c2ccccc2)C1C(=O)OCc1ccc2c(c1)OCO2 (centres undefined) [1,3-benzodioxol-5-ylmethyl 6-methyl-2-oxidanylidene-4-phenyl-3,4-dihydro-1H-pyrimidine-5-carboxylate]
- EC50: 1.84 µM

Structure (SMILES): COC(=O)c1cc(NCc2ccccc2F)ccc1N1CCOCC1 [5-[(2-fluorobenzyl)amino]-2-morpholino-benzoic acid methyl ester]
- EC50: 8.9 µM

Structure (SMILES): CC(C)(C)NC(=O)CSc1ncnc2c1nnn2Cc1ccccc1Cl [MLS000034488]
- EC50: 9.4 µM

Structure (SMILES): CCc1oc2ccccc2c1C(=O)c1cc(Br)c(O)c(Br)c1
- EC50: 5.94 µM

Structure (SMILES): Cc1ccsc1C(=O)OCC(=O)c1cc(C)n(CC2CCCO2)c1C (centres undefined) [3-methyl-2-thiophenecarboxylic acid [2-[2,5-dimethyl-1-(2-oxolanylmethyl)-3-pyrrolyl]-2-oxoethyl] ester]
- EC50: 7.53 µM

Structure (SMILES): CCC(NC(C)c1ccccc1)=C1C(=O)N(C)C(=O)N(C)C1=O (centres undefined) [SMR000043429]
- EC50: 13.6 µM

Structure (SMILES): O=C(Nc1ccc(-c2noc(CCc3ccccc3)n2)cc1)c1cccnc1 [MLS000047253]
- EC50: 3.6 µM

Structure (SMILES): C=C(C)COc1ccc(-c2nc(N)nc(C)c2Oc2ccccc2OC)c(O)c1 [(6E)-6-[2-amino-5-(2-methoxyphenoxy)-6-methyl-1H-pyrimidin-4-ylidene]-3-(2-methylallyloxy)cyclohexa-2,4-dien-1-one]
- EC50: 3.8 µM

Structure (SMILES): O=C(CSc1nnc(-c2ccc(Cl)cc2)n1Cc1ccco1)c1cccs1 [2-[[5-(4-chlorophenyl)-4-(2-furanylmethyl)-1,2,4-triazol-3-yl]thio]-1-thiophen-2-ylethanone]
- EC50 [1]: 17.3 µM

Structure (SMILES): Cc1cc(C(=O)CSc2nnc(-c3ccccc3)n2-c2ccccc2)c(C)n1-c1nnc[nH]1
- EC50: 5.27 µM

Structure (SMILES): O=C(Nc1ccccc1C(F)(F)F)c1cc(-c2ccc(O)cc2)on1 [5-(4-hydroxyphenyl)-N-[2-(trifluoromethyl)phenyl]isoxazole-3-carboxamide]
- EC50: 0.964 µM

Structure (SMILES): CC(C)(C)OC(=O)N[C@@H](Cc1ccccc1)c1nnc(S(=O)(=O)Cc2cccc(F)c2)o1 [tert-butyl N-[(1S)-1-[5-[(3-fluorophenyl)methylsulfonyl]-1,3,4-oxadiazol-2-yl]-2-phenylethyl]carbamate]
- EC50: 8.51 µM

Structure (SMILES): CCCOC(=O)c1[nH]c2c(c1C)C(=O)CC(c1cc(OC)c(OC)c(OC)c1)C2 (centres undefined) [MLS000116504]
- EC50 [1]: 10.9 µM
